Data set [1] in a line: acute toxicity. To be noted: mouse, in vivo, ICR female mice, observed 7 days. The source says: Each of compounds according to the invention was suspended in 0.1% P-1570 aqueous solution of sugar ester or 0.5% CMC aqueous solution. The suspension abdominally or orally dosed to ICR female mice (weight: 20±1 g).
In data set [2] the test system is Lewis lung carcinoma (LLC). The experiment in a line: proliferation inhibiting effect in explantation (LLC). It is filed as cell-based. To be noted: 72 h, 3 days culture with compound, living cells by dye-exclusion (tripan blue). As to the method:
(§1) Test 1 (proliferation inhibiting effect in explantation)
(§2) Following carcinomata are employed.
(1) Lewis lung carcinoma (hereinafter referred to as "LLC"),
(§3) 1×10^5 cells of each carcinoma are cultured for 24 hours in an ox serum eagle culture solution with use of a culture test tube and a carbon dioxide gas culturing device (5% CO2, 37° C.). After 24 hours, the used culture solution was flowed-out and each 0.1 ml of a freshly prepared culture solution containing a compound according to the invention was added to further continue the culture for 3 days. After completion of the culture, number of living cells was measured with use of a dye-exclusion method due to tripan blue dying. To each of control groups, 0.1 ml of the same culture solution but containing no compound according to the invention was added.
(§4) Concentrations on 50% inhibition of the carcinoma cells (IC50) were determined between the testing groups and control groups, according to the manner as stated above.

For data set [3], the system named is Ehrlich ascites carcinoma (EAC). The experiment in a line: carcinoma cell weight inhibiting effect in mice (EAC). It is filed as in vivo. To be noted: ICR-CD mice; oral, 1/5 LD50 one time/day for 5 days; 21 days from final dosage. The source says: (§5) (2) Ehrlich ascites carcinoma (hereinafter referred to as "EAC"),
(§6) Test 2 (carcinoma cell weight inhibiting effect in mice)
(§7) B-16 and EAC were given to BDF and ICR-CD mice, respectively by a hypodermic injection. 1.0×10^5 cells on B-16 and 5.0×10^6 cells on EAC were given to each mouse. Each of the compounds according to the invention was orally dosed for 5 days in an amount of 1/5 LD50 (one time/day). After lapsed 21 days from the final dosage, the carcinoma of each mouse was exenterated, measured its weight and calculated a mean weight as the inhibiting ratio which is shown in the following Table.

For data set [4], the system named is B-16 melanoma carcinoma (B-16). Nature of the data set: carcinoma cell weight inhibiting effect in mice (B-16). To be noted: BDF mice; oral, 1/5 LD50 one time/day for 5 days; 21 days from final dosage. The class given is in vivo.
Excerpt: (§8) (4) B-16 melanoma carcinoma (hereinafter referred to as "B-16").
as §6, §7

Data set [5] deals with B-16 melanoma carcinoma (B-16). Nature of the data set: proliferation inhibiting effect in explantation (B-16). The class given is cell-based. To be noted: Mus musculus, B16, 72 h, 3 days culture with compound, living cells by dye-exclusion (tripan blue). The procedure: as §1, §2, §8, §3, §4
Data set [6] concerns Ehrlich ascites carcinoma (EAC). Nature of the data set: proliferation inhibiting effect in explantation (EAC). It is filed as cell-based. To be noted: 72 h, 3 days culture with compound, living cells by dye-exclusion (tripan blue). The procedure:
as §1, §2, §5, §3, §4

The subject of data set [7] is K.B. carcinoma (KB). The experiment in a line: proliferation inhibiting effect in explantation (KB). To be noted: 72 h, 3 days culture with compound, living cells by dye-exclusion (tripan blue). It is filed as cell-based. The procedure:
as §1, §2
(3) K.B. carcinoma (hereinafter referred to as "KB"), and
as §3, §4

Where [8] appears, read: ip, abdominal dosage, read-out: Acute Toxicity LD50, Abdominal Dosage.
[9] abbreviates: oral dosage, read-out: Acute Toxicity LD50, Oral Dosage.

≈ marks a conversion by molar mass, not a printed value. Read-outs that look alike come from different tables or passages of the source. A value given as a limit tells only on which side of the number the result lay.

The record followed here is US4560679A, “Organosilicon compounds and antitumor agents containing the compound as effective component” (Sanwa Kagaku Kenkyusho Co. Ltd., priority 1982, dated 1985).

Turning to `CNCCSCC[Si](C)(C)C` [SKK-009], the LD50 (in general, the dose at which mortality reaches 50%) at 168 h in data set [1] (setting [8]) came to 189 mg/kg; in data set [1] (setting [9]) it was 800 mg/kg.

For the compound `C[Si](C)(C)CCSCCNC1CCCCC1` [SKK-010], the LD50 at 168 h worked out at 152 mg/kg in data set [1] (setting [8]) and 825 mg/kg in data set [1] (setting [9]).

On to `C=CCNCCSCC[Si](C)(C)C` [SKK-011], for which the LD50 at 168 h in data set [1] (setting [8]) was 134 mg/kg; in data set [1] (setting [9]) it was 846 mg/kg.

Take `C[Si](C)(C)CCSCCNC(=O)c1ccccc1` [SKK-012]: the IC50 – broadly, the midpoint of a concentration-inhibition curve – in data set [2] is 4.3 µg/mL (≈ 15.3 µM); in data set [5], 16 µg/mL (≈ 56.8 µM); in data set [6], 15 µg/mL (≈ 53.3 µM); in data set [7], 17 µg/mL (≈ 60.4 µM). In addition, the “inhibiting ratio (carcinoma weight), EAC” value in data set [3] came out at 76. Besides, the “inhibiting ratio (carcinoma weight), B-16” value (from here on “inhibiting ratio … B-16”) in data set [4] came out at 62. In addition, the figures for the LD50 at 168 h in data set [1] (setting [8]) and in data set [1] (setting [9]) were 1190 mg/kg and above 2000 mg/kg, respectively.

In the case of `C[Si](C)(C)CCSCCNC(=O)c1cccnc1` [SKK-021], the IC50 was 5 µg/mL (≈ 17.7 µM) in data set [2], below 5 µg/mL in data set [5], 12 µg/mL (≈ 42.5 µM) in data set [6] and 10 µg/mL (≈ 35.4 µM) in data set [7]. Further, in data set [3], the “inhibiting ratio (carcinoma weight), EAC” value stood at 70. Also, in data set [4], the “inhibiting ratio … B-16” value is given as 93. Moreover, the LD50 at 168 h in data set [1] (setting [8]) was below 500 mg/kg; in data set [1] (setting [9]) it was above 2000 mg/kg.

As for `C[Si](C)(C)CCSCCNC(=O)c1ccco1` [SKK-022], the IC50 in data set [2] turned out to be 9 µg/mL (≈ 33.2 µM); in data set [5] it was 20 µg/mL (≈ 73.7 µM); in data set [6], 15 µg/mL (≈ 55.3 µM); in data set [7] it was 17 µg/mL (≈ 62.6 µM). Further, the “inhibiting ratio (carcinoma weight), EAC” value in data set [3] was found to be 65. In data set [4], the “inhibiting ratio … B-16” value was found to be 58. In addition, the LD50 at 168 h in data set [1] (setting [8]) was below 1000 mg/kg; in data set [1] (setting [9]), above 2000 mg/kg.

`C[Si](C)(C)CCSCCNC(=O)c1cccs1` [SKK-023]: the LD50 at 168 h in data set [1] (setting [8]) is above 1000 mg/kg; in data set [1] (setting [9]), above 2000 mg/kg.

Turning to `C[Si](C)(C)CCSCCNC(=O)c1cccc2ccccc12` [SKK-024], the IC50 in data set [2] was found to be 13 µg/mL (≈ 39.2 µM); in data set [5], 25 µg/mL (≈ 75.4 µM); in data set [6], 18 µg/mL (≈ 54.3 µM); in data set [7] it was 14 µg/mL (≈ 42.2 µM). Moreover, in data set [3], the “inhibiting ratio (carcinoma weight), EAC” value worked out at 62. For the same compound, in data set [4], the “inhibiting ratio … B-16” value turned out to be 60. In addition, the LD50 at 168 h in data set [1] (setting [8]) is above 2000 mg/kg; in data set [1] (setting [9]), above 3000 mg/kg.

Turning to `CC(=O)NCCSCC[Si](C)(C)C` [SKK-025], the LD50 at 168 h in data set [1] (setting [8]) was around 100 mg/kg; in data set [1] (setting [9]), 1000 to 2000 mg/kg.

For the compound `C[Si](C)(C)CCSCCNC(=O)C1CCCCC1` [SKK-026], the LD50 at 168 h lay in the range of 500 to 1000 mg/kg in data set [1] (setting [8]) and 1000 to 2000 mg/kg in data set [1] (setting [9]).

Take `CCCCCCCC(=O)NCCSCC[Si](C)(C)C` [SKK-027]: the figures for the LD50 at 168 h in data set [1] (setting [8]) and in data set [1] (setting [9]) were 2000 to 3000 mg/kg and above 3000 mg/kg, respectively.

For the compound `Cc1ccc(S(=O)(=O)NCCSCC[Si](C)(C)C)cc1` [SKK-028], the IC50 amounted to 14 µg/mL (≈ 42.2 µM) in data set [2], 14 µg/mL (≈ 42.2 µM) in data set [5], 30 µg/mL (≈ 90.5 µM) in data set [6] and 10 µg/mL (≈ 30.2 µM) in data set [7]. Also, the “inhibiting ratio (carcinoma weight), EAC” value in data set [3] was found to be 55. The “inhibiting ratio … B-16” value in data set [4] turned out to be 85. Besides, the LD50 at 168 h in data set [1] (setting [8]) was above 2500 mg/kg; in data set [1] (setting [9]), above 3000 mg/kg.
